Counter-ions that a name gives are not always drawn. Like-named read-outs stand apart in the source and are kept apart here.
Tests used:
[1] = molecular target: T1, recombinant human matriptase (Homo sapiens, UniProt Q9Y5Y6); test: Enzyme inhibition assay with purified matriptase (Ki, dose-response); type: biochemical; conditions: for matriptase activity, Mean (Fig. 2b): normalized, 0 nM = 100
T1 construct: purchased R&D Systems (Minneapolis, MN, USA)
T1 sequence (Q9Y5Y6 1-855): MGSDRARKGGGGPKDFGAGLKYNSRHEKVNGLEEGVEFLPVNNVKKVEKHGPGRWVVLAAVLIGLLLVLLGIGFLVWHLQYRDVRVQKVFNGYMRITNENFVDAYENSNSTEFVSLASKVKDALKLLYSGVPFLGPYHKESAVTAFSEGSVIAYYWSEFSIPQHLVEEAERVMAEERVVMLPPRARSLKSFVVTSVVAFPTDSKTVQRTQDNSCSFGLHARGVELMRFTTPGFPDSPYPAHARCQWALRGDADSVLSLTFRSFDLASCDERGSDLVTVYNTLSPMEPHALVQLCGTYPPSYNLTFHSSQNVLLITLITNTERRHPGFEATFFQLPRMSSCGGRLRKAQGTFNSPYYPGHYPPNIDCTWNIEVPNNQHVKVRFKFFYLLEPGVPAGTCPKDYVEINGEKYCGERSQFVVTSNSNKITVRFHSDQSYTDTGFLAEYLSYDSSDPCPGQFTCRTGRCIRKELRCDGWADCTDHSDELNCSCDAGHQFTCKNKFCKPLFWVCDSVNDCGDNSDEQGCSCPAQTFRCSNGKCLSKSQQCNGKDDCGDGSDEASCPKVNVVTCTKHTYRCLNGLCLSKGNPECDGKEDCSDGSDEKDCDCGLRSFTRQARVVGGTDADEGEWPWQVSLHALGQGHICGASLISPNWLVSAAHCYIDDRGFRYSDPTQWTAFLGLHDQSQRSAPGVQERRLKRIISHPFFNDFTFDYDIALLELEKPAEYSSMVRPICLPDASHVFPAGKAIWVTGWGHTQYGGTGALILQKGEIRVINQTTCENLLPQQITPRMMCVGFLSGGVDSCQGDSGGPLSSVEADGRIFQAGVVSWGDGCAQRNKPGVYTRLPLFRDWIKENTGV

[2] = molecular target: T2, recombinant human thrombin (Homo sapiens, UniProt P00734); test: Enzyme inhibition assay with purified thrombin (Ki, dose-response); type: biochemical; conditions: normalized
T2 construct: purchased R&D Systems (Minneapolis, MN, USA)
Text: (§1) Recombinant human TMPRSS2 was purchased from Creative BioMart (New York, USA) or LSBio (Seattle, USA), factor Xa was obtained from Bio-Techne GmbH (Wiesbaden, Germany). Recombinant human thrombin and matriptase protein were purchased from R&D Systems (Minneapolis, MN, USA).

factor Xa = molecular target: T3, factor Xa (Homo sapiens, UniProt P00742); test: Enzyme inhibition assay with purified factor Xa (Ki, dose-response); type: biochemical; conditions: for factor Xa activity, Mean (Fig. 2d): normalized
T3 construct: purchased Bio-Techne GmbH (Wiesbaden, Germany)
Text: as §1

[3] = tested on: lentiviral pseudoparticles carrying SARS-CoV-2 Beta (B.1.351) spike, Caco-2 cells; type: cell-based; conditions: for SARS-CoV-2 spike driven entry, Mean (0 nM = 100): Fig. 5c
[4] = tested on: SARS-CoV-2 Alpha (B.1.1.7), Caco-2 cells; type: cell-based
TMPRSS2 [5] = molecular target: T4, TMPRSS2 (Homo sapiens, UniProt O15393); type: biochemical; design: purchased Creative BioMart (New York, USA) or LSBio (Seattle, USA); conditions: normalized, 0 nM = 100
Text: as §1

TMPRSS2 [6] = molecular target: T4, TMPRSS2; test: Cell culture medium stability: residual TMPRSS2 inhibition after incubation in medium
Protocol: The activity of the compounds against the recombinant human enzymes was determined in enzyme inhibition assays. […] The measurements were performed on a Tecan infinite® M1000 and the fluorescence intensity was measured by exciting the AMC fluorophore at 380 nm wavelength and recording emission at 460 nm wavelength. […] Fluorescence intensities and absorption were measured every 2 min for 2 h or as endpoint after 2 h. […] To determine the IC50 values, the concentration-response data were plotted with the program GraphPad prism version 8.4.2 (San Diego, California) and a nonlinear regression fit with the equation [Inhibitor] vs. normalized response was applied. The inhibitory constant Ki was calculated from the IC50 values using the Cheng–Prusoff equation (Ki = IC50/[S]/KM) for competitive reversible inhibitors[66].
The stability of the inhibitors was measured according to a modified procedure from ref. [67]. […] At indicated timepoints, 100 µL samples were taken and mixed with 200 µL of ethanol to precipitate proteins. […] The supernatant was aspirated and analyzed using analytical HPLC. The residual inhibitory constants Ki after incubation was assessed by mixing serial dilutions of the inhibitor with recombinant TMPRSS2 as described above.
were mixed with recombinant TMPRSS2, followed by the addition of the fluorogenic reference
Shown are the means ± SD of n=1 experiment performed in triplicates.

T4 sequence (O15393 whole entry): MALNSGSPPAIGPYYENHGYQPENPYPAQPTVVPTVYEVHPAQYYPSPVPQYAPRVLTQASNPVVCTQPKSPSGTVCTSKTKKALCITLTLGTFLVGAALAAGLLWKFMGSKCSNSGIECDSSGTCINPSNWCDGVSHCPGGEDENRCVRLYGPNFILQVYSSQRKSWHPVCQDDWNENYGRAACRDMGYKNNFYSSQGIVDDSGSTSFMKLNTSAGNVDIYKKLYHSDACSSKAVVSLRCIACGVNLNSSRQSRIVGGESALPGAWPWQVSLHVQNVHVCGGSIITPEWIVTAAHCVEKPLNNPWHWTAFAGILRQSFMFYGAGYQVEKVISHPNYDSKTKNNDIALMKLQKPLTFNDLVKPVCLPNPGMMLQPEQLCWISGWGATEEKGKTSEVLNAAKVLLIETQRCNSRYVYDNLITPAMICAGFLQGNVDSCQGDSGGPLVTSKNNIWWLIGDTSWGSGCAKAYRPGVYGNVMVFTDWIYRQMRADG
T3 sequence (P00742 235-488 limits assumed): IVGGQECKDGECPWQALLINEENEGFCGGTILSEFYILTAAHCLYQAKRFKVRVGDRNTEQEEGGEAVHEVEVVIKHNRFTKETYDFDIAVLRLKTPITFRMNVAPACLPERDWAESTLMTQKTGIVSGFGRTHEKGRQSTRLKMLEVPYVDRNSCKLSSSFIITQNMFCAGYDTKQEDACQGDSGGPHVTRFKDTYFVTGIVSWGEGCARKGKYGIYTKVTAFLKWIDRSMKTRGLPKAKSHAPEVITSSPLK
T3 sequence (P00742 41-179 partner limits assumed): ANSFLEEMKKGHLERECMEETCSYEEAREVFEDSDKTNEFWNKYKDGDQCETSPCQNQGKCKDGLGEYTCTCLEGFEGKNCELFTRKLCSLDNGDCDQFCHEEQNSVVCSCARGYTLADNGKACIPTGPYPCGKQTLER

## CN(C)C(=O)COC(=O)Cc1ccc(OC(=O)c2ccc(NC(=N)N)cc2)cc1 [CM, camostat mesylate, reference compound]
[1]; 0.05 nM
  matriptase activity, Mean (Fig. 2b): 100.491
[1]; 0.1 nM
  matriptase activity, Mean (Fig. 2b): 98.1997
[1]; 0.2 nM
  matriptase activity, Mean (Fig. 2b): 86.1702
[1]; 1 nM
  matriptase activity, Mean (Fig. 2b): 58.838
[1]; 10 nM
  matriptase activity, Mean (Fig. 2b): 4.828
[1]; 1000 nM
  matriptase activity, Mean (Fig. 2b): 0.2455
[1]; 50000 nM
  matriptase activity, Mean (Fig. 2b): 0.08183
[1]; 500000 nM
  matriptase activity, Mean (Fig. 2b): 0.1637
[1]; 30 min preincubation, substrate Boc-Gln-Ala-Arg-AMC
  Ki: 0.6 nM
[2]; 0.01 nM
  thrombin activity, Mean (Fig. 2c): 98.2939
[2]; 0.02 nM, 0 nM = 100
  thrombin activity, Mean (Fig. 2c): 99.8688
[2]; 0.04 nM, 0 nM = 100
  thrombin activity, Mean (Fig. 2c): 100.525
[2]; 0.2 nM, 0 nM = 100
  thrombin activity, Mean (Fig. 2c): 103.675
[2]; 2 nM, 0 nM = 100
  thrombin activity, Mean (Fig. 2c): 103.806
[2]; 20 nM, 0 nM = 100
  thrombin activity, Mean (Fig. 2c): 105.906
[2]; 10000 nM, 0 nM = 100
  thrombin activity, Mean (Fig. 2c): 73.8845
[2]; 100000 nM, 0 nM = 100
  thrombin activity, Mean (Fig. 2c): 23.2283
Factor Xa; 0.04 nM, 0 nM = 100
  factor Xa activity, Mean (Fig. 2d): 85.6127
Factor Xa; 0.2 nM, 0 nM = 100
  factor Xa activity, Mean (Fig. 2d): 89.6222
Factor Xa; 2 nM, 0 nM = 100
  factor Xa activity, Mean (Fig. 2d): 92.4525
Factor Xa; 20 nM, 0 nM = 100
  factor Xa activity, Mean (Fig. 2d): 96.9338
Factor Xa; 200 nM, 0 nM = 100
  factor Xa activity, Mean (Fig. 2d): 78.0652
Factor Xa; 1000 nM
  factor Xa activity, Mean (Fig. 2d): 72.1688
Factor Xa; 10000 nM, 0 nM = 100
  factor Xa activity, Mean (Fig. 2d): 33.4905
Factor Xa; 100000 nM, 0 nM = 100
  factor Xa activity, Mean (Fig. 2d): 14.8585
Factor Xa; 30 min preincubation, substrate Bz-Ile-Glu-Gly-Arg-pNA
  Ki: 1790 nM
[3]; Caco-2 cells, luciferase 2 days post transduction, read-out: IC50 pseudotyped lentivirus Beta
  IC50: 156 nM
[3]; compound 3.2 nM
  SARS-CoV-2 spike driven entry, Mean (0 nM = 100): 69.473
[3]; compound 16 nM
  SARS-CoV-2 spike driven entry, Mean (0 nM = 100): 73.209
[3]; compound 80 nM
  SARS-CoV-2 spike driven entry, Mean (0 nM = 100): 64.2815
[3]; compound 400 nM
  SARS-CoV-2 spike driven entry, Mean (0 nM = 100): 45.014
[3]; compound 2000 nM
  SARS-CoV-2 spike driven entry, Mean (0 nM = 100): 20.732
[3]; compound 10000 nM
  SARS-CoV-2 spike driven entry, Mean (0 nM = 100): 4.9565
[3]; compound 50000 nM
  SARS-CoV-2 spike driven entry, Mean (0 nM = 100): 3.2315
[4]; read-out: IC50 SARS-CoV-2 Alpha
  IC50: 16400 nM
[4]; read-out: IC50 SARS-CoV-2 Alpha (text)
  IC50: 16400 nM
TMPRSS2 [5]; 0.05 nM
  TMPRSS2 activity, Mean (Fig. 2a): 101.705
TMPRSS2 [5]; 0.5 nM
  TMPRSS2 activity, Mean (Fig. 2a): 66.4773
TMPRSS2 [5]; 5 nM
  TMPRSS2 activity, Mean (Fig. 2a): 16.1932
TMPRSS2 [5]; 50 nM
  TMPRSS2 activity, Mean (Fig. 2a): 0.2841
TMPRSS2 [5]; 500 nM
  TMPRSS2 activity, Mean (Fig. 2a): 0.5682
TMPRSS2 [5]; 5000 nM
  TMPRSS2 activity, Mean (Fig. 2a): -0.142
TMPRSS2 [5]; 50000 nM
  TMPRSS2 activity, Mean (Fig. 2a): 0.2841
TMPRSS2 [5]; 500000 nM
  TMPRSS2 activity, Mean (Fig. 2a): -0.4261
TMPRSS2 [6]; inhibitor 0.0167 nM, 0 min in cell culture medium
  Residual TMPRSS2 activity, Mean (0 nM = 100): 104.51
TMPRSS2 [6]; inhibitor 0.0167 nM, 30 min in cell culture medium
  Residual TMPRSS2 activity, Mean (0 nM = 100): 108.071
TMPRSS2 [6]; inhibitor 0.0167 nM, 60 min in cell culture medium
  Residual TMPRSS2 activity, Mean (0 nM = 100): 94.6283
TMPRSS2 [6]; inhibitor 0.0167 nM, 120 min in cell culture medium
  Residual TMPRSS2 activity, Mean (0 nM = 100): 101.99
TMPRSS2 [6]; inhibitor 0.0167 nM, 24 h in cell culture medium
  Residual TMPRSS2 activity, Mean (0 nM = 100): 104.987
TMPRSS2 [6]; inhibitor 0.0167 nM, 10 d in cell culture medium
  Residual TMPRSS2 activity, Mean (0 nM = 100): 98.7798
TMPRSS2 [6]; inhibitor 0.0167 nM, positive ctrl
  Residual TMPRSS2 activity, Mean (0 nM = 100): 112.676
TMPRSS2 [6]; inhibitor 0.167 nM, 0 min in cell culture medium
  Residual TMPRSS2 activity, Mean (0 nM = 100): 93.733
TMPRSS2 [6]; inhibitor 0.167 nM, 30 min in cell culture medium
  Residual TMPRSS2 activity, Mean (0 nM = 100): 95.4083
TMPRSS2 [6]; inhibitor 0.167 nM, 60 min in cell culture medium
  Residual TMPRSS2 activity, Mean (0 nM = 100): 77.5396
TMPRSS2 [6]; inhibitor 0.167 nM, 120 min in cell culture medium
  Residual TMPRSS2 activity, Mean (0 nM = 100): 90.8064
TMPRSS2 [6]; inhibitor 0.167 nM, 24 h in cell culture medium
  Residual TMPRSS2 activity, Mean (0 nM = 100): 102.761
TMPRSS2 [6]; inhibitor 0.167 nM, 10 d in cell culture medium
  Residual TMPRSS2 activity, Mean (0 nM = 100): 99.2067
TMPRSS2 [6]; inhibitor 0.167 nM, positive ctrl
  Residual TMPRSS2 activity, Mean (0 nM = 100): 96.1679
TMPRSS2 [6]; inhibitor 1.665 nM, 0 min in cell culture medium
  Residual TMPRSS2 activity, Mean (0 nM = 100): 49.6948
TMPRSS2 [6]; inhibitor 1.665 nM, 30 min in cell culture medium
  Residual TMPRSS2 activity, Mean (0 nM = 100): 47.8364
TMPRSS2 [6]; inhibitor 1.665 nM, 60 min in cell culture medium
  Residual TMPRSS2 activity, Mean (0 nM = 100): 26.9293
TMPRSS2 [6]; inhibitor 1.665 nM, 120 min in cell culture medium
  Residual TMPRSS2 activity, Mean (0 nM = 100): 28.8645
TMPRSS2 [6]; inhibitor 1.665 nM, 24 h in cell culture medium
  Residual TMPRSS2 activity, Mean (0 nM = 100): 90.2986
TMPRSS2 [6]; inhibitor 1.665 nM, 10 d in cell culture medium
  Residual TMPRSS2 activity, Mean (0 nM = 100): 96.8623
TMPRSS2 [6]; inhibitor 1.665 nM, positive ctrl
  Residual TMPRSS2 activity, Mean (0 nM = 100): 28.3437
TMPRSS2 [6]; inhibitor 16.65 nM, 0 min in cell culture medium
  Residual TMPRSS2 activity, Mean (0 nM = 100): 3.839
TMPRSS2 [6]; inhibitor 16.65 nM, 30 min in cell culture medium
  Residual TMPRSS2 activity, Mean (0 nM = 100): 20.3269
TMPRSS2 [6]; inhibitor 16.65 nM, 60 min in cell culture medium
  Residual TMPRSS2 activity, Mean (0 nM = 100): 1.937
TMPRSS2 [6]; inhibitor 16.65 nM, 120 min in cell culture medium
  Residual TMPRSS2 activity, Mean (0 nM = 100): 2.211
TMPRSS2 [6]; inhibitor 16.65 nM, 24 h in cell culture medium
  Residual TMPRSS2 activity, Mean (0 nM = 100): 42.5007
TMPRSS2 [6]; inhibitor 16.65 nM, 10 d in cell culture medium
  Residual TMPRSS2 activity, Mean (0 nM = 100): 95.3646
TMPRSS2 [6]; inhibitor 16.65 nM, positive ctrl
  Residual TMPRSS2 activity, Mean (0 nM = 100): 3.3573
TMPRSS2 [6]; inhibitor 166.5 nM, 0 min in cell culture medium
  Residual TMPRSS2 activity, Mean (0 nM = 100): -1.499
TMPRSS2 [6]; inhibitor 166.5 nM, 30 min in cell culture medium
  Residual TMPRSS2 activity, Mean (0 nM = 100): -2.333
TMPRSS2 [6]; inhibitor 166.5 nM, 60 min in cell culture medium
  Residual TMPRSS2 activity, Mean (0 nM = 100): -2.406
TMPRSS2 [6]; inhibitor 166.5 nM, 120 min in cell culture medium
  Residual TMPRSS2 activity, Mean (0 nM = 100): -2.5978
TMPRSS2 [6]; inhibitor 166.5 nM, 24 h in cell culture medium
  Residual TMPRSS2 activity, Mean (0 nM = 100): 5.263
TMPRSS2 [6]; inhibitor 166.5 nM, 10 d in cell culture medium
  Residual TMPRSS2 activity, Mean (0 nM = 100): 97.9296
TMPRSS2 [6]; inhibitor 166.5 nM, positive ctrl
  Residual TMPRSS2 activity, Mean (0 nM = 100): -2.042
TMPRSS2 [6]; inhibitor 1665 nM, 0 min in cell culture medium
  Residual TMPRSS2 activity, Mean (0 nM = 100): -4.334
TMPRSS2 [6]; inhibitor 1665 nM, 30 min in cell culture medium
  Residual TMPRSS2 activity, Mean (0 nM = 100): -4.917
TMPRSS2 [6]; inhibitor 1665 nM, 60 min in cell culture medium
  Residual TMPRSS2 activity, Mean (0 nM = 100): -4.534
TMPRSS2 [6]; inhibitor 1665 nM, 120 min in cell culture medium
  Residual TMPRSS2 activity, Mean (0 nM = 100): -4.182
TMPRSS2 [6]; inhibitor 1665 nM, 24 h in cell culture medium
  Residual TMPRSS2 activity, Mean (0 nM = 100): 0.9545
TMPRSS2 [6]; inhibitor 1665 nM, 10 d in cell culture medium
  Residual TMPRSS2 activity, Mean (0 nM = 100): 88.1928
TMPRSS2 [6]; inhibitor 1665 nM, positive ctrl
  Residual TMPRSS2 activity, Mean (0 nM = 100): -4.2458
